According to US5312816A, “Method of combatting osteoporosis in mammalian subjects, utilizing organic boron compounds” (priority 1993, dated 1994):

Target: T1, 5'-lipoxygenase (Mus musculus, UniProt P48999)
T1 construct: Cf1 male mouse hepatic 10% homogenates; from tissue; host or cells: CF1 male mouse liver, 10% homogenate
T1 sequence (P48999 1-674): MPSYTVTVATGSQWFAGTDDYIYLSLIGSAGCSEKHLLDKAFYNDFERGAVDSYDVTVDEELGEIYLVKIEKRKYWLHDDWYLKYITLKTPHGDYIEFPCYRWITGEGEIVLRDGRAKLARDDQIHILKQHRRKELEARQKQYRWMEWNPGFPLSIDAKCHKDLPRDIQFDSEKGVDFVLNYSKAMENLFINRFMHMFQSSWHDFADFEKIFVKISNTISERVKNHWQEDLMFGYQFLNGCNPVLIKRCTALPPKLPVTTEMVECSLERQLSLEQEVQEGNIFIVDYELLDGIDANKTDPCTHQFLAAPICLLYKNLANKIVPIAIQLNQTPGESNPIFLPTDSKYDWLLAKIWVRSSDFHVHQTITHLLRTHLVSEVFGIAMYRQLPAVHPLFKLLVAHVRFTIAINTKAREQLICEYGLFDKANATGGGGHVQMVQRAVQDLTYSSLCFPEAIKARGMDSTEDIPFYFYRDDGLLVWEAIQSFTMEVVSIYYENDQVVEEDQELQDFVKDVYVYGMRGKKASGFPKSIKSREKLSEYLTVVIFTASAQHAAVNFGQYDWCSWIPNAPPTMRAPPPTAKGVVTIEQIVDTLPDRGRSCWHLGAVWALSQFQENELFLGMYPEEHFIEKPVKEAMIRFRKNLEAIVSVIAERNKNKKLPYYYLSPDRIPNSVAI
Assay: Mouse hepatic 5'-lipoxygenase activity
Format: biochemical
Settings: Table VI; mouse hepatic, 60 min incubation; read-out: 5'-lipoxygenase IC50
From the text: 1. Cf1 male mouse hepatic 10% homogenates in 0.25M sucrose+0.001MEDTA,pH 7.2.
5'-lipoxygenase Mylari, B.L., et al, J. Med.

In the case of CCCCCCCCCCCCCCCC[N+](C)(C)[BH2-]C(=O)O [Compound 7, N,N-Dimethylhexadecylamine-carboxyborane], the IC50 is reported as 55.8 µM.
